# What was measured:
# Assay in all cases: GRmax, 72 h; higher = less effect;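 further: breast cell lines in 384-well plates, nine doses across a 10^4 range, Dye Drop imaging of viable cells vs DMSO and time-zero plates, GR 0 means no net growth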
# HCC1187 = test system: HCC1187
# BT20 = test system: BT20
# SUM159 = test system: SUM159
# HTERT_HME1 = test system: HTERT_HME1
# MDAMB415 = test system: MDAMB415
# MDAMB361 = test system: MDAMB361
# PDX1328 = test system: PDX1328
# MDAMB175VII = test system: MDAMB175VII
# HCC1937 = test system: HCC1937
# EFM19 = test system: EFM19
# MCF10A = test system: MCF10A
# CAL120 = test system: CAL120
SMILES,"GRmax, 72 h (HCC1187) [GR]","GRmax, 72 h (BT20) [GR]","GRmax, 72 h (SUM159) [GR]","GRmax, 72 h (HTERT_HME1) [GR]","GRmax, 72 h (MDAMB415) [GR]","GRmax, 72 h (MDAMB361) [GR]","GRmax, 72 h (PDX1328) [GR]","GRmax, 72 h (MDAMB175VII) [GR]","GRmax, 72 h (HCC1937) [GR]","GRmax, 72 h (EFM19) [GR]","GRmax, 72 h (MCF10A) [GR]","GRmax, 72 h (CAL120) [GR]"
COc1cc(N2CCN(C)CC2)ccc1Nc1ncc2c(n1)N(C)c1ccccc1C(=O)N2CC(F)(F)F [FMF-03-146-1],0.955,0.973,0.898,0.785,0.959,0.362,0.893,0.887,0.846,0.947,0.99,0.968
CN1CC[C@H](c2c(O)cc(O)c3c(=O)cc(-c4ccccc4Cl)oc23)[C@H](O)C1 [Flavopiridol] (max 1 µM),-0.885,-0.639,-0.051,-0.408,-0.303,-0.389,-0.0976,-0.309,-0.215,-0.21,-0.67,-0.0459
CC(C)n1nc(-c2ccc3oc(N)nc3c2)c2c(N)ncnc21 [INK128/MLN0128] (max 3.162 µM),0.0961,-0.0045,0.214,0.197,-0.338,-0.846,-0.159,-0.886,0.358,-0.128,0.172,-0.0097
CC(C)NC[C@@H](C(=O)N1CCN(c2ncnc3c2[C@H](C)C[C@H]3O)CC1)c1ccc(Cl)cc1 [Ipatasertib/GDC0068] (max 10 µM),0.409,0.102,0.591,0.635,-0.698,-0.58,0.704,-0.5,0.535,0.066,0.647,0.599
CN(C)C(=O)c1cc2cnc(Nc3ccc(N4CCNCC4)cn3)nc2n1C1CCCC1 [LEE011/Ribociclib] (max 10 µM),0.56,0.092,0.436,0.292,0.231,0.0436,0.265,0.159,1.03,0.386,0.434,0.632
CCNC(=O)c1noc(-c2cc(C(C)C)c(O)cc2O)c1-c1ccc(CN2CCOCC2)cc1 [Luminespib/NVP-AUY922] (max 1 µM),-0.476,-0.049,-0.0637,-0.335,-0.305,-0.885,-0.253,-0.455,-0.187,0.0263,-0.172,-0.115
CCOc1cc2ncc(C#N)c(Nc3ccc(OCc4ccccn4)c(Cl)c3)c2cc1NC(=O)/C=C/CN(C)C [Neratinib/HKI272] (max 3.162 µM),0.421,0.303,0.51,0.0983,0.0922,-0.528,-0.0735,-0.979,0.3,0.718,0.0959,-0.261
O=C(c1cc(Cc2n[nH]c(=O)c3ccccc23)ccc1F)N1CCN(C(=O)C2CC2)CC1 [Olaparib/AZD2281] (max 10 µM),0.0867,0.606,0.76,0.591,0.816,0.0945,0.631,0.466,0.685,0.63,0.794,0.269
CC(=O)O[C@H]1C(=O)[C@@]2(C)[C@H]([C@H](OC(=O)c3ccccc3)[C@]3(O)C[C@H](OC(=O)[C@H](O)[C@@H](NC(=O)c4ccccc4)c4ccccc4)C(C)=C1C3(C)C)[C@]1(OC(C)=O)CO[C@@H]1C[C@@H]2O [Paclitaxel] (max 1 µM),-0.754,-0.576,-0.201,-0.224,-0.344,-0.609,-0.403,-0.469,0.0104,-0.639,-0.126,-0.199
CS(=O)(=O)N1CCN(Cc2cc3nc(-c4cccc5[nH]ncc45)nc(N4CCOCC4)c3s2)CC1 [Pictilisib/GDC0941] (max 10 µM),-0.293,-0.165,0.2,0.126,-0.687,-0.938,-0.167,-0.903,0.278,-0.154,0.193,0.194
O=C1NC(=NCc2cccs2)SC1=Cc1ccc2ncccc2c1 [R0-3306] (max 10 µM),-0.648,-0.274,0.101,-0.107,0.914,0.111,0.399,-0.0257,-0.117,0.0987,-0.0081,0.15
CNCc1ccc(-c2[nH]c3cc(F)cc4c3c2CCNC4=O)cc1 [Rucaparib] (max 10 µM),0.802,0.875,0.799,0.785,0.642,0.11,0.634,0.56,0.815,0.96,0.874,0.613
CC1(N)CCN(c2cnc(-c3cccc(Cl)c3Cl)c(N)n2)CC1 [SHP099] (max 10 µM),0.77,0.914,0.821,0.606,0.75,0.626,0.58,-0.0734,0.797,0.992,0.571,0.869
CN1CCN(CCOc2cc(OC3CCOCC3)c3c(Nc4c(Cl)ccc5c4OCO5)ncnc3c2)CC1 [Saracatinib/AZD0530] (max 10 µM),0.15,0.31,0.723,0.46,0.324,-0.178,-0.108,-0.935,0.651,0.139,0.148,0.526
Cc1cc(C(C)Nc2ccccc2)c2nc(N3CCOCC3)cc(=O)n2c1 (stereo not given) [TGX221] (max 10 µM),0.46,1.02,1.02,1.03,0.184,0.799,0.778,0.886,0.838,0.843,0.951,1.02
CN(C)C/C=C/C(=O)Nc1ccc(C(=O)Nc2cccc(Nc3ncc(Cl)c(-c4c[nH]c5ccccc45)n3)c2)cc1 [THZ1] (max 1 µM),-0.852,-0.385,-0.122,-0.455,-0.421,-0.72,-0.171,-0.438,-0.386,-0.293,-0.525,-0.128
CN(C)C/C=C/C(=O)Nc1ccc(C(=O)N2CCC[C@@H](Nc3ncc(Cl)c(-c4c[nH]c5ccccc45)n3)C2)cc1 [THZ531] (max 1 µM),-0.852,0.637,0.627,-0.217,-0.344,-0.743,-0.184,-0.662,-0.282,-0.557,-0.625,-0.0211
CN(C)C/C=C/C(=O)Nc1ccc(C(=O)Nc2cccc(Nc3cc(-c4c[nH]c5ccccc45)ncn3)c2)cc1 [THZ-P1-2] (max 10 µM),0.283,-0.623,-0.394,0.566,-0.513,0.142,0.656,-0.765,-0.777,0.124,-0.181,-0.278
Cc1nc(-c2cn3c(n2)-c2ccc(-c4cnn(C(C)(C)C(N)=O)c4)cc2OCC3)n(C(C)C)n1 [Taselisib/GDC0032] (max 10 µM),-0.0769,-0.375,0.187,0.0336,-0.792,-0.99,-0.0629,-0.937,0.121,-0.143,0.0593,0.151
O=C1NC(=O)[C@@H](c2cn3c4c(cccc24)CCC3)[C@@H]1c1c[nH]c2ccccc12 [Tivantinib/ARQ197] (max 10 µM),-0.761,-0.488,-0.281,-0.161,-0.184,-0.606,-0.479,-0.296,-0.0621,-0.592,-0.15,-0.256
Nc1ccc(-c2ccc3ncc4ccc(=O)n(-c5cccc(C(F)(F)F)c5)c4c3c2)cn1 [Torin2] (max 1 µM),-0.0468,-0.289,0.172,0.0764,-0.372,-0.964,-0.249,-0.945,0.0726,-0.0622,0.128,-0.0115
CC[C@@H]1C(=O)N(C)c2cnc(Nc3ccc(C(=O)N[C@H]4CC[C@H](N5CCN(CC6CC6)CC5)CC4)cc3OC)nc2N1C(C)C [Volasertib/BI6727] (max 1 µM),-0.708,-0.534,0.0326,-0.0817,-0.314,-0.497,-0.529,-0.115,-0.148,-0.577,-0.0887,0.0258
O=C(CCCCCCC(=O)Nc1ccccc1)NO [Vorinostat] (max 10 µM),-0.467,-0.113,0.181,0.0551,-0.503,-0.939,-0.285,-0.867,-0.0085,-0.248,0.0566,-0.228
C=CC(=O)Nc1ccc(C(=O)Nc2[nH]nc3c2CN(C(=O)N[C@H](CN(C)C)c2ccccc2)C3(C)C)cc1 [YKL-5-124] (max 10 µM),-0.635,-0.153,-0.137,-0.144,-0.0129,-0.835,0.177,-0.771,-0.205,0.0431,-0.162,0.182
CN1CCN(C(=O)c2ccc3cc(CCNc4ncnc5ccc(C#N)cc45)ccc3c2)CC1 [senexin b] (max 10 µM),1.62,0.175,0.881,0.748,0.609,0.271,1.02,0.205,0.394,0.629,0.851,0.856

# From the supplement of paper PMC9663587
